The results in this text go back to the supplement of paper PMC10307832.

Experiment in all cases: relative viability (nuclei count vs DMSO), 5 days (fraction); higher = more cells survive
Compound in test [1]: CC1(C)CNc2cc(NC(=O)c3cccnc3NCc3ccncc3)ccc21 [Motesanib] + CC(=O)c1c(C)c2cnc(Nc3ccc(N4CCNCC4)cn3)nc2n(C2CCCC2)c1=O [Palbociclib] (partner 0.5 µM)
The procedure, abridged: (§1)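 Cells from lung cancer lines were seeded into 1536-well plates and, one day later, dosed by pin tool. Treatments were either a single drug or a fixed dose of an anchor drug with five library-drug doses (not always all listed) in √10 steps. After 5 days, nuclei were stained in a one-step fixation (final 0.05% Triton X-100, 1% formaldehyde, 1 ug/ml Hoechst) and counted on 4× images, and relative viability is the treated-to-vehicle nuclei ratio, as the median of duplicate plates.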

Compound in test [2]: CC1(C)CNc2cc(NC(=O)c3cccnc3NCc3ccncc3)ccc21 [Motesanib] + CC(=O)Nc1cccc(-n2c(=O)n(C3CC3)c(=O)c3c(Nc4ccc(I)cc4F)n(C)c(=O)c(C)c32)c1 [Trametinib] (partner 0.02 µM)
The method in brief: as §1

Compound in test [3]: CC1(C)CNc2cc(NC(=O)c3cccnc3NCc3ccncc3)ccc21 [Motesanib] + C[C@]1(O)C[C@@H](c2nc(-c3ccc4ccc(-c5ccccc5)nc4c3)c3c(N)nccn32)C1 [Linsitinib] (partner 1 µM)
The method in brief: as §1

Compound in test [4]: CC1(C)CNc2cc(NC(=O)c3cccnc3NCc3ccncc3)ccc21 [Motesanib] + CC1(C)CCC(c2ccc(Cl)cc2)=C(CN2CCN(c3ccc(C(=O)NS(=O)(=O)c4ccc(N[C@H](CCN5CCOCC5)CSc5ccccc5)c(S(=O)(=O)C(F)(F)F)c4)cc3)CC2)C1 [Navitoclax] (partner 0.5 µM)
The procedure, abridged:
as §1

Consider NCI-H1944, for which the relative viability in test [1] (first compound 0.01 µM) amounted to 0.352; in test [1] (first compound 0.03162 µM), 0.328; in test [1] (first compound 0.1 µM), 0.334; in test [1] (first compound 0.3162 µM), 0.302; in test [1] (first compound 1 µM), 0.326; in test [2] (first compound 0.01 µM), 0.438. Besides, the relative viability in test [2] (first compound 0.03162 µM) was determined as 0.442; in test [2] (first compound 0.1 µM), 0.408; in test [2] (first compound 0.3162 µM), 0.455; in test [2] (first compound 1 µM), 0.384; in test [3] (first compound 0.01 µM) it was 1.2; in test [3] (first compound 0.03162 µM), 1.21. Moreover, the relative viability in test [3] (first compound 0.1 µM) amounted to 1.18; in test [3] (first compound 0.3162 µM), 1.32; in test [3] (first compound 1 µM), 1.21; in test [4] (first compound 0.01 µM), 1.06; in test [4] (first compound 0.03162 µM), 1.03; in test [4] (first compound 0.1 µM), 1.07. For the same cell line, the relative viability in test [4] (first compound 0.3162 µM) was 1.04; in test [4] (first compound 1 µM) it was 1.15.
With NCI-H1975, the relative viability in test [1] (first compound 0.01 µM) was determined as 0.53; in test [1] (first compound 0.03162 µM), 0.508; in test [1] (first compound 0.1 µM), 0.507; in test [1] (first compound 0.3162 µM), 0.565; in test [1] (first compound 1 µM), 0.617; in test [2] (first compound 0.01 µM), 0.335. The relative viability in test [2] (first compound 0.03162 µM) came out at 0.359; in test [2] (first compound 0.1 µM), 0.316; in test [2] (first compound 0.3162 µM) it was 0.38; in test [2] (first compound 1 µM), 0.339; in test [3] (first compound 0.01 µM) it was 0.962; in test [3] (first compound 0.03162 µM), 0.9. Besides, the relative viability in test [3] (first compound 0.1 µM) turned out to be 0.948; in test [3] (first compound 0.3162 µM) it was 0.909; in test [3] (first compound 1 µM), 0.941; in test [4] (first compound 0.01 µM), 1.11; in test [4] (first compound 0.03162 µM), 1.12; in test [4] (first compound 0.1 µM), 1.05. For the same cell line, the relative viability in test [4] (first compound 0.3162 µM) came out at 1.11; in test [4] (first compound 1 µM), 1.26.
Consider NCI-H1993, for which the relative viability in test [1] (first compound 0.01 µM) came to 0.675; in test [1] (first compound 0.03162 µM) it was 0.622; in test [1] (first compound 0.1 µM), 0.752; in test [1] (first compound 0.3162 µM), 0.626; in test [1] (first compound 1 µM), 0.553; in test [2] (first compound 0.01 µM) it was 0.598. For the same cell line, the relative viability turned out to be 0.566 in test [2] (first compound 0.03162 µM); 0.49 in test [2] (first compound 0.1 µM); 0.718 in test [2] (first compound 0.3162 µM); 0.5 in test [2] (first compound 1 µM); 0.675 in test [3] (first compound 0.01 µM); 0.759 in test [3] (first compound 0.03162 µM). Further, the relative viability was determined as 0.727 in test [3] (first compound 0.1 µM); 0.719 in test [3] (first compound 0.3162 µM); 0.762 in test [3] (first compound 1 µM); 1.15 in test [4] (first compound 0.01 µM); 0.882 in test [4] (first compound 0.03162 µM); 0.912 in test [4] (first compound 0.1 µM). Also, the relative viability was 0.921 in test [4] (first compound 0.3162 µM) and 0.802 in test [4] (first compound 1 µM).
NCI-H2009: the relative viability in test [1] (first compound 0.01 µM) is 0.273; in test [1] (first compound 0.03162 µM) it was 0.246; in test [1] (first compound 0.1 µM) it was 0.276; in test [1] (first compound 0.3162 µM), 0.246; in test [1] (first compound 1 µM) it was 0.264; in test [2] (first compound 0.01 µM), 0.244. Also, the relative viability in test [2] (first compound 0.03162 µM) was 0.316; in test [2] (first compound 0.1 µM), 0.273; in test [2] (first compound 0.3162 µM) it was 0.291; in test [2] (first compound 1 µM), 0.289; in test [3] (first compound 0.01 µM) it was 1.14; in test [3] (first compound 0.03162 µM), 1.27. In addition, the relative viability in test [3] (first compound 0.1 µM) was 1.17; in test [3] (first compound 0.3162 µM), 1.22; in test [3] (first compound 1 µM), 1.18; in test [4] (first compound 0.01 µM), 1.12; in test [4] (first compound 0.03162 µM), 1.19; in test [4] (first compound 0.1 µM), 1.15. For the same cell line, the results for the relative viability in test [4] (first compound 0.3162 µM) and in test [4] (first compound 1 µM) were 1.21 and 1.18, respectively.
As to NCI-H2023, the relative viability in test [1] (first compound 0.01 µM) is 0.365; in test [1] (first compound 0.03162 µM), 0.378; in test [1] (first compound 0.1 µM), 0.361; in test [1] (first compound 0.3162 µM), 0.385; in test [1] (first compound 1 µM) it was 0.401; in test [2] (first compound 0.01 µM) it was 0.666. The relative viability is 0.339 in test [2] (first compound 0.03162 µM); 0.574 in test [2] (first compound 0.1 µM); 0.589 in test [2] (first compound 0.3162 µM); 0.569 in test [2] (first compound 1 µM); 0.756 in test [3] (first compound 0.01 µM); 0.695 in test [3] (first compound 0.03162 µM). The relative viability in test [3] (first compound 0.1 µM) amounted to 0.715; in test [3] (first compound 0.3162 µM), 0.587; in test [3] (first compound 1 µM), 0.643; in test [4] (first compound 0.01 µM), 0.949; in test [4] (first compound 0.03162 µM), 0.916; in test [4] (first compound 0.1 µM), 1.02. Further, the relative viability in test [4] (first compound 0.3162 µM) was found to be 1.02; in test [4] (first compound 1 µM) it was 0.98.
Take NCI-H2085: the relative viability in test [1] (first compound 0.01 µM) was 0.512; in test [1] (first compound 0.03162 µM), 0.488; in test [1] (first compound 0.1 µM), 0.471; in test [1] (first compound 0.3162 µM) it was 0.465; in test [1] (first compound 1 µM) it was 0.474; in test [2] (first compound 0.01 µM), 0.513. The relative viability in test [2] (first compound 0.03162 µM) stood at 0.537; in test [2] (first compound 0.1 µM) it was 0.521; in test [2] (first compound 0.3162 µM) it was 0.535; in test [2] (first compound 1 µM), 0.526; in test [3] (first compound 0.01 µM), 0.936; in test [3] (first compound 0.03162 µM) it was 0.853. The relative viability in test [3] (first compound 0.1 µM) was found to be 1.13; in test [3] (first compound 0.3162 µM), 0.996; in test [3] (first compound 1 µM), 0.886; in test [4] (first compound 0.01 µM), 1.2; in test [4] (first compound 0.03162 µM), 1.29; in test [4] (first compound 0.1 µM), 1.21. The relative viability was found to be 1.13 in test [4] (first compound 0.3162 µM) and 1.12 in test [4] (first compound 1 µM).
